# Assay results taken from patent publication US9981042B2, “Carbon nanotube-based anti-cancer agent capable of suppressing drug resistance” (INDUSTRY-ACADEMIC COOPERATION FOUNDATION GYEONGSANG …, priority 2012, dated 2018).
# Assays:
# Mrp-1 = Mrp-1 mRNA expression by RT-PCR; assay type: cell-based; details: 100 ng/ml for 2 h; after 6 hours and later
# Description: (§1) MDA-MB-231 breast cancer cells (4×10^5 cells/well) known to overexpress MRP1 were plated in a 6 well plate and 100 ng/ml of doxorubicin and DOX-mwCNT were treated to the cells for 2 h, respectively. Carbon nanotube as a control was treated with a concentration of 348 ng/ml for 2 h.
# Two hours after treatment, culture mediums were replaced with DMEM medium supplemented with 10% FBS and not containing mwCNT, DOX, and DOX-mwCNT, and the cells were further incubated. Then RNA was isolated from cells after 2, 6, 12, 24, and 36 hours of incubation, respectively and then Mrp-1 mRNA level was analyzed. In this case, TRIZOL reagent (Invitrogen, USA) and chloroform were used for RNA isolation, then the isolated RNA was reacted with same volume of isopropanol for 2 h, quantified and subjected to RT-PCR (reverse transcriptase PCR).
# MDA-MB-231 tumor tissue = experiment: Histopathological observation (Haematoxylin-Eosin) of tumor tissues; assay type: in vivo, BALB/c nude mice; details: H&E; doxorubicin 0.5 and 5 mg/kg, DOX-mwCNT-25 0.5 mg/kg; versus control
# Description: Then, the present inventors anesthetized the mice with ethyl ether, sacrificed them and collected tumor tissues therefrom. After measuring the weight of the collected tumor tissues, the tumor tissues were fixed for 24 hours in 10% formalin, washed with water and dehydrated and dipped in 70, 80, 90, 95 and 100% of ethanol, serially. The tissues were transparentized with xylene and embedded in paraffin. And then the embedded tissues were sliced at a thickness of 5 um, placed on glass slides.
# MDA-MB-231 tumor = experiment: Tumor size and weight in MDA-MB-231 tumor model mice after tail vein injection; assay type: in vivo, BALB/c nude mice
# Description: To prepare the animal tumor model, MDA-MB-231 cells were inoculated subcutaneously in the flank of female BALB/c nu/nu (athymic nude) mice (5×10^6 cells per mouse) When the tumor reached a mean volume of 100 mm^3 in the mice were used for the following Experimental Examples.
# First, the tumor model mice prepared by transplanting MDA-MB-231 tumor cells to BALB/c nude mice were randomly divided into seven groups (n=10 per group) and injected with 200 μL of 0.5 mg/kg DOX, mwCNT, DOX-mwCNT in PBS, or pure PBS (negative control) in the tail vein. Subjects were weighed at 2, 9, and 16 days. Body weight and tumor sizes were measured twice a week for 21 days, and tumor volumes were calculated by the formula: V(volume)=X(length)×D(width)^2/2.
# Twenty one day after the tail vein injection, the changes in tumor size of sacrificed animals were determined.
# Furthermore, after the administration of the anticancer agent, tumor tissues taken from the sacrificed animals were weighed. In this case, in order to compare the significance of each group, Prism (GraphPad Software, Inc.) was used for statistical analysis with one-way ANOVA (analysis of variance) (** P<0.01, *** P<0.001).
# MRP-1 protein = MRP-1 protein western blot; assay type: cell-based; details: 100 ng/ml for 2 h; 24 hours after the treatment
# Description: as §1
# To confirm the above result in protein level, the present inventors performed western bot analysis of the MRP-1 protein, there was a significant difference in protein expression of MRP-1 between doxorubicin- and DOX-mwCNT-25-treating groups (FIG. 30). […] Despite of previous studies reporting that Mdr-1 and Mrp-1 genes mediate drug resistance of MDA-MB-231, Mdr-1 was hardly detected in this experiment due to short drug exposure time (2 hours).
# MDA-MB-231 cells = experiment: Efflux from cells (fluorescence microscopy); assay type: cell-based; details: 100 ng/ml for 2 h, then drug-free medium
# Description: In addition, for efflux analysis, MDA-MB-231 cells (1×10^4 cells/well) cultivated in 24 well plate were treated with 100 ng/ml of DOX-mwCNT according to an embodiment of the present invention and doxorubicin, respectively. Two hours after the treatment, culture media was removed and the cells were washed three times with PBS and incubated with regular culture medium containing no anticancer agents for 24 h. Then the degree of efflux of doxorubicin from the cells was observed using a fluorescent microscope (FIG. 27). […] In the experiment, zero time (0 h) means a time when 2 hours has elapsed after removing doxorubicin and washing cells with PBS.
# [1] = Particle size by transmission electron microscope; details: in PBS
# [2] = tested on: late endosomes in MDA-MB-231 cells; experiment: High resolution imaging of doxorubicin and late endosome marker; assay type: cell-based; details: 24 h
# Description: Furthermore, the present inventors performed a high resolution image analysis for 24 h in order to investigate the degradation of uptaken doxorubicin signal by co-staining doxorubicin and late endosome specific marker. […] Therefore, it was understood that late endosomes act as transporters of doxorubicin excreted from nucleus.
# A549 cells = experiment: MTT assay on lung cancer cells; assay type: cell-based; details: A549, 48 h, 0.086-1.38 μmol/L
# Description: A549 cells (1×10^4 cells/well, CAT: CRL-1658, ATCC) were seeded in a 96-well plate and incubated with DMEM medium supplementing 10% FBS (fetal bovine serum). At this time, the culture was maintained under the condition of 5% of CO2 at 37° C. The cells were cultured for 24 h and mwCNT-COOH, EPI, EPI-EGF, EPI-mwCNT and EPI-EGF-mwCNT were treated to each well with ratios of 0.086, 0.172, 0.345, 0.69, 1.38 μmol/L, respectively and then further cultured for 48 h. And then, drug solutions were removed from the plate, 100 μl of MTT reagent (1 mg/ml, 3-(4,5-dimethylthiazol-2-yl)-2,5-diphenyltetrazolium bromide) was slowly added to each well, and incubated for 1 h at 37° C. Thereafter, 100 μl of DMSO solution per well was added, followed by measuring absorbance at 560 nm using a microplate reader (Model 680, Bio-Rad).
# Then, the present inventors treated drugs containing doxorubicin (DOX-EGF, DOX-mwCNT-25, DOX-EGF-mwCNT) to the same lung cancer cell A549. All the condition except drugs were same.
Compound,expression of Mrp-1 gene (Mrp-1),necrosis / damage of tumor tissue (MDA-MB-231 tumor tissue),"volume and mass of tumors (MDA-MB-231 tumor; 0.5 mg/kg, three times I.V. injection, 21 days)",size of tumor tissue compared to control group (MDA-MB-231 tumor; large dose 5 mg/kg),protein expression of MRP-1 (MRP-1 protein),time to complete excretion from cells (MDA-MB-231 cells),particle size (length variation) [1],late endosome signal [2],viability compared to group treated with only mwCNT-COOH (A549 cells)
"COc1cccc2c1C(=O)c1c(O)c3c(c(O)c1C2=O)C[C@@](O)(C(=O)CO)C[C@@H]3O[C@H]1C[C@H](N)[C@H](O)[C@H](C)O1 [DOX, doxorubicin]",decreased,increased necrosis,no notable tumor inhibition,decreased significantly,weak band,6˜12 hours,0-40 nm,few late endosomes were observed,
"COc1cccc2c1C(=O)c1c(O)c3c(c(O)c1C2=O)C[C@@](O)(C(=O)CO)C[C@@H]3O[C@H]1C[C@H](N)[C@@H](O)[C@H](C)O1 [EPI, epirubicin]",,,,,,,,,lower viability
"EPI-EGF (NSDSECPLSHDGYCLHDGVCMYIEALDKYACNCVVGYIGERCQYRDLKWWELR; Epidermal growth factor epirubicin conjugate; UniProt P01133 971-1023, looked up)",,,,,,,,,lower viability
